Test results: DBAASP
In brackets after ≈: the same amount, converted by molar mass.

Experiments:
Assay in all cases: ≥ marks a high value that may be exact or a test limit, other limits are often not marked, values filed in µg/mL are converted to µM
[1] = test system: Escherichia coli K12 MG1655
[2] = test system: Salmonella enterica subsp. enterica serovar Enteritidis MH91989
[3] = test system: Escherichia coli JW2778 ΔygdD
Escherichia coli = test system: Escherichia coli
Escherichia coli MC1041 = test system: Escherichia coli MC1041
Escherichia coli J2210 = test system: Escherichia coli J2210
[4] = test system: Salmonella enterica subsp. enterica serovar Infantis
Escherichia coli JJ2489 = test system: Escherichia coli JJ2489
[5] = test system: Salmonella enterica subsp. enterica serovar Newport
[6] = test system: Salmonella enterica serovar Tennessee
[7] = test system: Salmonella typhimurium SL1344
Escherichia coli BW25113 = test system: Escherichia coli BW25113
[8] = test system: Escherichia coli JW0368 ΔsbmA
Escherichia coli JW0013 = test system: Escherichia coli JW0013
[9] = test system: Porphyromonas gingivalis W50
[10] = test system: Escherichia coli DH5alpha
[11] = test system: Pseudomonas aeruginosa PAO1
[12] = test system: Listeria monocytogenes KCTC 19111
[13] = test system: Pseudomonas aeruginosa ATCC 15692
[14] = test system: Salmonella typhimurium KCTC 1926
[15] = test system: Escherichia coli ATCC 25922
[16] = test system: Staphylococcus epidermidis KCTC 1917
[17] = test system: Staphylococcus aureus ATCC 25923

CC[C@H](C)[C@H](NC(=O)[C@H](CCCCN)NC(=O)[C@H](CCCCN)NC(=O)[C@@H](NC(=O)[C@@H](NC(=O)[C@H](CCCN=C(N)N)NC(=O)[C@H](CCCCN)NC(=O)[C@H](CCC(=O)O)NC(=O)CNC(=O)[C@H](C)N)[C@@H](C)CC)[C@@H](C)CC)C(=O)N[C@@H](CC(=O)O)C(=O)N[C@@H](CCC(=O)O)C(=O)N[C@@H](C)C(=O)N[C@@H](Cc1ccccc1)C(=O)N[C@@H](CCC(N)=O)C(=O)O [AGEKRIIKKIDEAFQ]
MIC [1]: ≥ 73.3 µM

CC(C)C[C@H](NC(=O)[C@H](CCCN=C(N)N)NC(=O)[C@@H]1CCCN1C(=O)[C@H](Cc1cnc[nH]1)NC(=O)[C@@H]1CCCN1C(=O)[C@@H]1CCCN1C(=O)[C@H](CCCN=C(N)N)NC(=O)[C@@H]1CCCN1C(=O)[C@H](CCC(N)=O)NC(=O)[C@@H]1CCCN1C(=O)[C@H](CCCCN)NC(=O)[C@H](Cc1ccc(O)cc1)NC(=O)[C@@H](NC(=O)[C@@H]1CCCN1C(=O)[C@H](CCCCN)NC(=O)[C@H](CC(N)=O)NC(=O)[C@H](CC(N)=O)NC(=O)CN)C(C)C)C(=O)O [GNNKPVYKPQPRPPHPRL]
MIC [2]: 0.031 µM (≈ 0.065 µg/mL) | MIC [3]: 0.024 µM (≈ 0.0503 µg/mL) | MIC (Escherichia coli): 0.048 µM (≈ 0.101 µg/mL) | MIC (Escherichia coli MC1041): 0.024 µM (≈ 0.0503 µg/mL) | MIC (Escherichia coli J2210): 0.034 µM (≈ 0.0712 µg/mL) | MIC [4]: 0.024 µM (≈ 0.0503 µg/mL) | MIC (Escherichia coli JJ2489): 0.031 µM (≈ 0.065 µg/mL) | MIC [5]: 0.024 µM (≈ 0.0503 µg/mL) | MIC [6]: 0.024 µM (≈ 0.0503 µg/mL) | MIC [7]: 0.034 µM (≈ 0.0712 µg/mL) | MIC (Escherichia coli BW25113): 0.017 µM (≈ 0.0356 µg/mL) | MIC [8]: 0.096 µM (≈ 0.201 µg/mL) | MIC (Escherichia coli JW0013): 0.012 µM (≈ 0.0251 µg/mL)

CC[C@H](C)[C@H](NC(=O)[C@H](CCC(N)=O)NC(=O)CN)C(=O)N[C@H](C(=O)N[C@@H](CC(N)=O)C(=O)N[C@@H](CC(C)C)C(=O)N[C@@H](CCCCN)C(=O)N[C@@H](C)C(=O)N[C@@H](CO)C(=O)N[C@@H](CC(C)C)C(=O)N[C@@H](CC(=O)O)C(=O)N[C@@H](CC(C)C)C(=O)N[C@@H](CC(C)C)C(N)=O)[C@@H](C)CC [GQIINLKASLDLL]
MIC [9]: ≥ 119 µM | MIC [10]: ≥ 143 µM | MIC [11]: > 119 µM

NCCCC[C@H](NC(=O)CNC(=O)[C@H](Cc1c[nH]c2ccccc12)NC(=O)[C@H](CCCCN)NC(=O)[C@H](CCCCN)NC(=O)CNC(=O)[C@H](Cc1c[nH]c2ccccc12)NC(=O)[C@H](CCCCN)NC(=O)[C@H](CCCCN)NC(=O)CNC(=O)[C@H](Cc1c[nH]c2ccccc12)NC(=O)[C@@H](N)CCCCN)C(N)=O [KWGKKWGKKWGK]
MIC [12]: 8 µM (≈ 12.1 µg/mL) | MIC [13]: 4 µM (≈ 6.06 µg/mL) | MIC [14]: 16 µM (≈ 24.3 µg/mL) | MIC [15]: 4 µM (≈ 6.06 µg/mL) | MIC [16]: 8 µM (≈ 12.1 µg/mL) | MIC [17]: 64 µM (≈ 97 µg/mL)
